Source: ChEMBL document CHEMBL1201862, “PubChem BioAssay data set” (2004)
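These data come from cells grown in 96-well plates and exposed to compound for 48 hours at five concentrations. Abbreviation: GI50, concentration required for 50% inhibition of growth.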 Calls of active or inactive are those of the source. Rule as the data show it: active = GI50 up to about 1.1 µM and inactive = higher.

Assays:
Assay in all cases: NCI-60 cell line screen, 48 h
[1] = system: OVCAR-4
[2] = system: SNB-75
[3] = system: MCF7
[4] = system: OVCAR-8
[5] = system: M14
[6] = system: EKVX
[7] = system: UACC-62
[8] = system: SNB-19
[9] = system: HL-60
[10] = system: NCI-H23
[11] = system: A498
[12] = system: T47D
[13] = system: BT-549
[14] = system: A549
[15] = system: MOLT-4
[16] = system: SF-268
[17] = system: MDA-MB-435
[18] = system: KM12
[19] = system: SK-OV-3
[20] = system: UO-31

Row | Structure (SMILES) | GI50 [1] | GI50 [2] | GI50 [3] | GI50 [4] | GI50 [5] | GI50 [6] | GI50 [7] | GI50 [8] | GI50 [9] | GI50 [10] | GI50 [11] | GI50 [12] | GI50 [13] | GI50 [14] | GI50 [15] | GI50 [16] | GI50 [17] | GI50 [18] | GI50 [19] | GI50 [20]
1 | O=C1CCc2cc(Br)ccc2O1 | > 100 µM (inactive) | 30.4 µM (inactive) | 12.6 µM (inactive) | > 100 µM (inactive) | 57 µM (inactive) | 3.81 µM (inactive) | > 100 µM (inactive) | 25 µM (inactive) | > 100 µM (inactive) | 44.7 µM (inactive) | 37.8 µM (inactive) | 73.3 µM (inactive) | 62.8 µM (inactive) | > 100 µM (inactive) | > 100 µM (inactive) | 23.6 µM (inactive) | > 100 µM (inactive) |  |  | 
2 | O=[N+]([O-])c1ccc2nc3c(nc2c1)-c1c2ccccc2cc2cccc-3c12 | 24.3 µM (inactive) |  | 4.06 µM (inactive) | 7.55 µM (inactive) | 31.3 µM (inactive) | 26.4 µM (inactive) | 10.5 µM (inactive) | 11.7 µM (inactive) | 20.5 µM (inactive) | 3.61 µM (inactive) | 0.427 µM (active) | 0.142 µM (active) | 3.56 µM (inactive) | 48.6 µM (inactive) | 2.17 µM (inactive) | 13.8 µM (inactive) | 27.8 µM (inactive) | 3.61 µM (inactive) | 17.5 µM (inactive) | 12.1 µM (inactive)
3 | Cc1sc2nc3n(c(=O)c2c1C)N=C(c1ccc(Cl)cc1)CS3 | > 100 µM (inactive) | 48.2 µM (inactive) | > 100 µM (inactive) | > 100 µM (inactive) |  | > 100 µM (inactive) | > 100 µM (inactive) |  | > 100 µM (inactive) | > 100 µM (inactive) | > 100 µM (inactive) | > 100 µM (inactive) | 31.6 µM (inactive) | > 100 µM (inactive) | > 100 µM (inactive) | > 100 µM (inactive) | > 100 µM (inactive) | > 100 µM (inactive) | > 100 µM (inactive) | > 100 µM (inactive)
4 | COc1cc(N(CCC#N)CCC#N)ccc1C(/N=N/c1cccc(C)c1)=N\NC(=O)c1ccc(C)cc1 | > 100 µM (inactive) |  | 29.1 µM (inactive) | > 100 µM (inactive) | > 100 µM (inactive) | 87.7 µM (inactive) | 37.2 µM (inactive) | > 100 µM (inactive) | 47.3 µM (inactive) | > 100 µM (inactive) | 4.78 µM (inactive) | 66.2 µM (inactive) | > 100 µM (inactive) | > 100 µM (inactive) | 7.91 µM (inactive) | 35.5 µM (inactive) | > 100 µM (inactive) | > 100 µM (inactive) | > 100 µM (inactive) | > 100 µM (inactive)
5 | O=C1CSC(c2ccc([N+](=O)[O-])cc2)N1c1ccc(-c2ccc(-n3c(-c4ccccc4)nc4ccccc4c3=O)cc2)cc1 (stereo not given) | 34.2 µM (inactive) |  | 33.1 µM (inactive) | 46.9 µM (inactive) | 59 µM (inactive) | 38.5 µM (inactive) | 35.1 µM (inactive) | > 100 µM (inactive) | 26.5 µM (inactive) | > 100 µM (inactive) | > 100 µM (inactive) | 21.5 µM (inactive) | 53.3 µM (inactive) | 57 µM (inactive) | 20.4 µM (inactive) | > 100 µM (inactive) | 59.7 µM (inactive) | 21.4 µM (inactive) | > 100 µM (inactive) | 46.8 µM (inactive)
6 | COc1ccc(-n2c(C)nc3ccc(NC4OCC(OC(C)=O)C(OC(C)=O)C4OC(C)=O)cc3c2=O)cc1 (stereo not given) | > 100 µM (inactive) | > 100 µM (inactive) | > 100 µM (inactive) | > 100 µM (inactive) |  | > 100 µM (inactive) | > 100 µM (inactive) | > 100 µM (inactive) | 32.4 µM (inactive) | > 100 µM (inactive) | > 100 µM (inactive) | > 100 µM (inactive) | > 100 µM (inactive) |  | > 100 µM (inactive) | > 100 µM (inactive) | > 100 µM (inactive) | > 100 µM (inactive) |  | > 100 µM (inactive)
7 | c1ccc(C(/C(=N/c2ccc(Cc3ccc(/N=C(\C(c4ccccc4)c4ccccc4)N4CC4)cc3)cc2)N2CC2)c2ccccc2)cc1 |  |  | 3.1 µM (inactive) | 10.7 µM (inactive) | 14.3 µM (inactive) | 10.1 µM (inactive) | 2.32 µM (inactive) | 13.1 µM (inactive) | 4.23 µM (inactive) | 10.5 µM (inactive) | 12.5 µM (inactive) | 2.61 µM (inactive) | 10.5 µM (inactive) | 7.36 µM (inactive) |  | 4.86 µM (inactive) | 8.73 µM (inactive) | 6.28 µM (inactive) | < 0.01 µM (active) | 2.6 µM (inactive)
8 | COC(=O)NN(C(=O)OC)c1c(-c2ccccc2)nc(SC)n1N | > 100 µM (inactive) | > 100 µM (inactive) | > 100 µM (inactive) | > 100 µM (inactive) | > 100 µM (inactive) | > 100 µM (inactive) | > 100 µM (inactive) | > 100 µM (inactive) | > 100 µM (inactive) | > 100 µM (inactive) | > 100 µM (inactive) | > 100 µM (inactive) | > 100 µM (inactive) | > 100 µM (inactive) | > 100 µM (inactive) | > 100 µM (inactive) | > 100 µM (inactive) | > 100 µM (inactive) |  | > 100 µM (inactive)
